The results in this text go back to patent US6232318A, “Pyrimidinedione derivatives useful as alpha 1A adrenoceptor antagonists” (Merck & Co., Ltd., priority 1999, dated 2001).

Each structure is given as a SMILES string.

Assay [1] deals with human alpha 1d and alpha 1b adrenergic receptors. Description: Selective binding assays: alpha 1d and alpha 1b membranes ([125I]-HEAT competition), compared with alpha 1a. To be noted: alpha 1a vs alpha 1b and alpha 1d, ratio. As to the method:
Membranes prepared from stably transfected human alpha 1d and alpha 1b cell lines (ATCC CRL 11138 and CRL 11139, respectively) were used to identify compounds that selectively bind to the human alpha 1a adrenergic receptor. These competition binding reactions (total volume=200 μl) contained 50 mM Tris-HCl pH. 7.4, 5 mM EDTA, 150 mM NaCl, 100 pM [^125 I]-HEAT, membranes prepared from cell lines transfected with the respective alpha 1 subtype expression plasmid and increasing amounts of unlabeled ligand. Reactions were incubated at room temperature for one hour with shaking. Reactions were filtered onto Whatman GF/C glass fiber filters with a Inotec 96 well cell harvester. Filters were washed three times with ice cold buffer and bound radioactivity was determined (Ki).

Assay [2] concerns the target T1, human alpha 1a adrenergic receptor (Homo sapiens, UniProt P35348).
T1 sequence (P35348 1-466): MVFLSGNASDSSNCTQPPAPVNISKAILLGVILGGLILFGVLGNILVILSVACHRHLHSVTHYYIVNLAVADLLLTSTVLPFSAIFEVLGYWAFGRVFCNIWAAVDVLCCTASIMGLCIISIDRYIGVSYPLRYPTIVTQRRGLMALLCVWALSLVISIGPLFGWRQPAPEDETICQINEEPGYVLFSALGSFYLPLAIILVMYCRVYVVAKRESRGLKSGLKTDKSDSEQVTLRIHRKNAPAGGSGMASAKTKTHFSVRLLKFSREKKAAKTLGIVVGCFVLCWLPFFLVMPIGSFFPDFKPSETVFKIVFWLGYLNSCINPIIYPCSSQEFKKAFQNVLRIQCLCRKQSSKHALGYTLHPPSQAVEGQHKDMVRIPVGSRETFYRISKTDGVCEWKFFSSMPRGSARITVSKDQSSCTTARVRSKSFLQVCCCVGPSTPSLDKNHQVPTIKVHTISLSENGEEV
Description: Screening assay: alpha 1a adrenergic receptor binding ([125I]-HEAT competition, membranes of stably transfected cell line). As to the method:
Screening Assay: Alpha 1a Adrenergic Receptor Binding
Membranes prepared from the stably transfected human alpha 1a cell line (ATCC CRL 11140) were used to identify compounds that bind to the human alpha 1a adrenergic receptor. These competition binding reactions (total volume=200 μl) contained 50 mM Tris-HCl pH. 7.4, 5 mM EDTA, 150 mM NaCl, 100 pM [^125 I]-HEAT, membranes prepared from the alpha 1a cell line and increasing amounts of unlabeled ligand. Reactions were incubated at room temperature for one hour with shaking. Reactions were filtered onto Whatman GF/C glass fiber filters with a Inotec 96 well cell harvester. Filters were washed three times with ice cold buffer and bound radioactivity was determined (Ki).

As for `Cc1cn(Cc2ccccc2)c(=O)n(CCCN2CCC(c3ccc(F)cc3)CC2)c1=O` [Example 1, 1-Benzyl-3-{3-[4-(4-fluorophenyl)piperidin-1-yl]propyl}-5-methyl-1H-pyrimidine-2,4-dione], the “selectivity in binding to alpha 1a receptors versus binding to alpha 1b and alpha 1d receptors” value (“selectivity in binding” below) in assay [1] is recorded as ≤ 10 fold.
For `Cc1ccccc1C1(C#N)CCN(CCCn2c(=O)c(C)cn(Cc3ccccc3)c2=O)CC1` [Example 2, 1-[3-(3-Benzyl-5-methyl-2,6-dioxo-3,6-dihydro-2H-pyrimidin-1-yl)propyl]-4-ortho-tolylpiperidine-4-carbonitrile], the “selectivity in binding” value in assay [1] is ≤ 10 fold.
For the molecule `Cc1cn(Cc2ccccc2)c(=O)n(CCCN[C@H]2CC[C@](C#N)(c3ccc(F)cc3F)CC2)c1=O` [Example 4, cis-4-[3-(3-Benzyl-5-methyl-2,6-dioxo-3,6-dihydro-2H-pyrimidin-1-yl)propylamino]-1-(2,4-difluorophenyl)cyclohexanecarbonitrile], the “selectivity in binding” value in assay [1] is ≤ 10 fold.
On to `Cc1cn(Cc2ccccc2)c(=O)n(CCCN[C@H]2CC[C@@](C#N)(c3ccccc3)CC2)c1=O` [Example 6, trans-4-[3-(3-Benzyl-5-methyl-2,6-dioxo-3,6-dihydro-2H-pyrimidin-1-yl)propylamino]-1-phenylcyclohexanecarbonitrile], for which, in assay [1], the “selectivity in binding” value is listed as ≤ 10 fold. Moreover, in assay [2] (room temperature, 1 h, pH 7.4), the Ki – broadly, a measure of affinity in units of concentration, obtained from inhibition or displacement – stood at 0.0005 mM.
Consider `Cc1cn(Cc2ccccc2)c(=O)n(CCCN[C@H]2CC[C@@](C#N)(c3cc(F)cc(F)c3)CC2)c1=O` [Example 9, cis-4-[3-(3-Benzyl-5-methyl-2,6-dioxo-3,6-dihydro-2H-pyrimidin-1-yl)propylamino]-1-(3,5-difluorophenyl)cyclohexanecarbonitrile], for which the “selectivity in binding” value in assay [1] is reported as ≤ 10 fold. In assay [2] (value in mM), this molecule showed a Ki of 0.000115 mM.
As to `COc1ccccc1[C@H]1CC[C@H](NCCCn2c(=O)c(C)cn(Cc3ccccc3)c2=O)CC1` [Example 17, trans-1-Benzyl-3-{3-[4-(2-methoxyphenyl)cyclohexylamino]propyl}-5-methyl-1H-pyrimidine-2,4-dione], the “selectivity in binding” value in assay [1] is ≤ 10 fold.
For the molecule `Cc1c[nH]c(=O)n(CCCN[C@H]2CC[C@](C#N)(c3ccccc3)CC2)c1=O` [Example 20, cis4-[3-(5-Methyl-2,6-dioxo-3,6-dihydro-2H-pyrimidin-1-yl)propylamino]-1-phenylcyclohexanecarbonitrile], the “selectivity in binding” value in assay [1] was ≤ 10 fold.
On to `Cc1c[nH]c(=O)n(CCCN[C@H]2CC[C@@](C#N)(c3ccccc3)CC2)c1=O` [Example 21, trans-4-[3-(5-Methyl-2,6-dioxo-3,6-dihydro-2H-pyrimidin-1-yl)propylamino]-1-phenylcyclohexanecarbonitrile], for which, in assay [1], the “selectivity in binding” value is ≤ 10 fold. This molecule displayed a Ki in assay [2] (room temperature, 1 h, pH 7.4) of 0.000755 mM.
`Cc1cn(CCCN[C@H]2CC[C@](C#N)(c3ccccc3C#N)CC2)c(=O)n(Cc2ccccc2)c1=O` [Example 26, trans-2-{4-[3-(3-Benzyl-5-methyl-2,4-dioxo-3,4-dihydro-2H-pyrimidin-1-yl)propylamino]-1-cyanocyclohexyl}benzonitrile]: the “selectivity in binding” value in assay [1] is ≤ 10 fold. The same molecule gave a Ki in assay [2] (room temperature, 1 h, pH 7.4) of 0.00079 mM.
